Experimental data: patent publication US4874869A, “Hydantoin derivatives and medicines containing the same” (Eisai Co., Ltd., priority 1980, dated 1989)
Read-outs that look alike come from different tables or passages of the source.

Tests used:
[1] = tested on: sorbitol accumulation in the lens and the sciatic nerve; experiment: Reduction or inhibition of sorbitol accumulation in the lens and the sciatic nerve of streptozotocin-induced diabetic rats; format: in vivo, rat; conditions: for Inhibition of sorbitol accumulation: vs no compound; for higher activities such as the inhibition of sorbitol accumulation, predominant diastereomer compared with the other isomer: predominant vs minor diastereomer; for superior effect on the inhibition of sorbitol accumulation in comparison with the control compound: vs control compound, Table 1
Protocol: The compounds listed in Tables 1 and 2 were tested for the ability to reduce or inhibit the accumulation of sorbitol in the lens and the sciatic nerve of streptozotocin-induced diabetic rats by the method of M. J. Peterson et al., [Metabolism, Vol. 28, No. 4, Supply. 1 (April), 456-461 (1979)]. […] In this experiment, the amount of sorbitol accumulation in the lens and the sciatic nerve of the rat was measured 28 hours after induction of diabetes.
The compounds listed in Tables 1 and 2 were orally administered at, the dose levels indicated in the Tables, 4, 8 and 25 hours after the administration of the streptozotocin.

aldose reductase = target: T1, aldose reductase (Bos taurus, UniProt P16116); experiment: Inhibition effect on aldose reductase; format: biochemical; conditions: for activity of the d-type relative to the dl-type product: aldose reductase
T1 construct: Aldose reductase was prepared by the method of Hayman et al; from tissue
Protocol: Aldose reductase was prepared by the method of Hayman et al. [S. Hayman and K.K. Kinoshita; Journal of Biological Chemistry, Vol. 240, p.

[2] = tested on: cataract formation in galactosemic rats; experiment: Effect on cataract formation in galactosemic rats (visual observation of lenticular opacities); format: in vivo, male Sprague-Dawley rats; conditions: for lenticular opacities, number with grade + / lenticular opacities, number with grade - (no opacity) / lenticular opacities, number with grade ++ / lenticular opacities, number with grade +++: 16th day, total 6
Protocol: (§1) On the 16th day of the study (24 hours after the final administration) lenticular opacities were observed, and then the lens and the sciatic nerve were enucleated to determine the content of carbohydrates.
The abscissa in FIG. 1 indicates the number of days from the beginning of feeding of a 30% galactose diet, and the ordinate indicates the percentages of appearance of the cataract.
In Table 3, a symbol - represents the case of no opacity and +, ++, +++ show the grade of the opacity, respectively.

[3] = tested on: galactitol accumulation in the lens and the sciatic nerve; experiment: Inhibition of galactitol accumulation in the lens and the sciatic nerve of galactosemic rats; format: in vivo, male Sprague-Dawley rats; conditions: for Inhibition of galactitol accumulation: 16th day
Protocol: as §1

[4] = lens, 5 mg/kg oral, 4, 8 and 25 h after streptozotocin
[5] = sciatic nerve, 5 mg/kg oral, 4, 8 and 25 h after streptozotocin
[6] = lens, 10 mg/kg oral, 4, 8 and 25 h after streptozotocin
[7] = sciatic nerve, 10 mg/kg oral, 4, 8 and 25 h after streptozotocin
[8] = Table 5, read-out: ID50 (concentration of 50% inhibition on aldose reductase)
[9] = right, 25 mg/kg oral once a day
[10] = lens, 0.2 mg/kg oral, 4, 8 and 25 h after streptozotocin
[11] = lens, 1 mg/kg oral, 4, 8 and 25 h after streptozotocin
[12] = sciatic nerve, 0.2 mg/kg oral, 4, 8 and 25 h after streptozotocin
[13] = sciatic nerve, 1 mg/kg oral, 4, 8 and 25 h after streptozotocin
[14] = sciatic nerve, 1 mg/kg oral once a day
[15] = sciatic nerve, 5 mg/kg oral once a day
[16] = sciatic nerve, 25 mg/kg oral once a day
[17] = similar manner as in Experiment 3, d-type vs dl-type product, read-out: ID50, inhibition effect on the Aldose reductase

| SMILES | Inhibition on aldose reductase (aldose reductase; 3 × 10^-6 (M)) | Inhibition on aldose reductase (aldose reductase; 3 × 10^-7 (M)) | Inhibition on aldose reductase (aldose reductase; 10^-6 (M)) | Inhibition on aldose reductase (aldose reductase; 10^-7 (M)) | IC50 (aldose reductase; [8]) | IC50 (aldose reductase; [17]) | Inhibition of sorbitol accumulation [1, 4] | Inhibition of sorbitol accumulation [1, 5] | Inhibition of sorbitol accumulation [1, 6] | Inhibition of sorbitol accumulation [1, 7] | Inhibition of sorbitol accumulation [1, 10] | Inhibition of sorbitol accumulation [1, 11] | Inhibition of sorbitol accumulation [1, 12] | Inhibition of sorbitol accumulation [1, 13] | also measured |
| --- | --- | --- | --- | --- | --- | --- | --- | --- | --- | --- | --- | --- | --- | --- | --- |
| CC1CC2(NC(=O)NC2=O)c2ccccc2O1 (stereo not drawn) [2-Methyl-spiro-[chroman-4,4'-imidazolidine]-2',5'-dione] |  |  |  |  |  |  | 54% | 77% |  |  |  |  |  |  |  |
| CC1Oc2ccc(Cl)cc2C12NC(=O)NC2=O (stereo not drawn) [5-Chloro-2-methyl-spiro-[benzofuran-3,4'-imidazolidine]-2',5'-dione] |  |  |  |  |  |  |  |  | 95% | 45% |  |  |  |  |  |
| CC1CC2(NC(=O)NC2=O)c2cc(Cl)c(Cl)cc2O1 (stereo not drawn) [6,7-Dichloro-2-methyl-spiro-[chroman-4,4'-imidazolidine]-2',5'-dione] |  |  |  |  |  |  | 88% |  |  |  |  |  |  |  |  |
| CC1(C)CC2(NC(=O)NC2=O)c2cc(Cl)cc(Cl)c2O1 (stereo not drawn) [6,8-Dichloro-2,2-dimethyl-spiro-[chroman-4,4'-imidazolidine]-2',5'-dione] |  |  |  |  |  |  |  |  | 87% | 55% |  |  |  |  |  |
| CC1(C)CC2(NC(=O)NC2=O)c2cc(Br)ccc2O1 (stereo not drawn) [6-Bromo-2,2-dimethyl-spiro-[chroman-4,4'-imidazolidine]-2',5'-dione] |  |  |  |  |  |  |  |  | 88% | 100% |  |  |  |  |  |
| CC1(C)CC2(NC(=O)NC2=O)c2cc(F)ccc2O1 (stereo not drawn) [6-Fluoro-2,2-dimethyl-spiro-[chroman-4,4'-imidazolidine]-2',5'-dione] | 70% | 12% | 40% | 0% | 2000 nM |  | 72% | 81% | 81% | 93% | 35% | 58% | 22% | 33% |  |
| O=C1NC(=O)C2(CCOc3ccc(F)cc32)N1 (stereo not drawn) [6-fluoro-spiro-[chroman-4,4'-imidazolidine]-2',5'-dione, reference compound] | 78% | 17% | 53% | 2% |  |  | 62% | 67% | 77% | 88% | -29% | 41% | 26% | 15% | lenticular opacities on the 16th day (in words) ([2]; 25 mg/kg oral once a day): lenticular opacities were not observed; lenticular opacities, number with grade ++ ([2]; left, 1 mg/kg oral once a day): 3; lenticular opacities, number with grade +++ ([2]; left, 1 mg/kg oral once a day): 3; lenticular opacities, number with grade + ([2]; left, 5 mg/kg oral once a day): 4; lenticular opacities, number with grade - (no opacity) ([2]; left, 5 mg/kg oral once a day): 2; lenticular opacities, number with grade - (no opacity) ([2]; left, 25 mg/kg oral once a day): 6; lenticular opacities, number with grade ++ ([2]; right, 1 mg/kg oral once a day): 2; lenticular opacities, number with grade +++ ([2]; right, 1 mg/kg oral once a day): 4; lenticular opacities, number with grade + ([2]; right, 5 mg/kg oral once a day): 4; lenticular opacities, number with grade - (no opacity) ([2]; right, 5 mg/kg oral once a day): 2; lenticular opacities, number with grade - (no opacity) [2, 9]: 6; Inhibition of galactitol accumulation ([3]; lens, 1 mg/kg oral once a day): -11%; Inhibition of galactitol accumulation ([3]; lens, 5 mg/kg oral once a day): 5%; Inhibition of galactitol accumulation ([3]; lens, 25 mg/kg oral once a day): 22%; Inhibition of galactitol accumulation [3, 14]: 1%; Inhibition of galactitol accumulation [3, 15]: -12%; Inhibition of galactitol accumulation [3, 16]: 17% |
| CC1CC2(NC(=O)NC2=O)c2ccc(Cl)cc2O1 (stereo not drawn) [7-Chloro-2-methyl-spiro-[chroman-4,4'-imidazolidine]-2',5'-dione] |  |  |  |  |  |  | 83% |  |  |  |  |  |  |  |  |

Continued, in another order:

| Inhibition on aldose reductase (aldose reductase; 3 × 10^-6 (M)) | Inhibition on aldose reductase (aldose reductase; 3 × 10^-7 (M)) | Inhibition on aldose reductase (aldose reductase; 10^-6 (M)) | Inhibition on aldose reductase (aldose reductase; 10^-7 (M)) | IC50 (aldose reductase; [8]) | IC50 (aldose reductase; [17]) | SMILES | Inhibition of sorbitol accumulation [1, 4] | Inhibition of sorbitol accumulation [1, 5] | Inhibition of sorbitol accumulation [1, 6] | Inhibition of sorbitol accumulation [1, 7] | Inhibition of sorbitol accumulation [1, 10] | Inhibition of sorbitol accumulation [1, 11] | Inhibition of sorbitol accumulation [1, 12] | Inhibition of sorbitol accumulation [1, 13] | also measured |
| --- | --- | --- | --- | --- | --- | --- | --- | --- | --- | --- | --- | --- | --- | --- | --- |
| 79% | 8% | 47% | -4% | 1000 nM |  | CC1(C)CC2(NC(=O)NC2=O)c2cc(Cl)ccc2O1 (stereo not drawn) [6-Chloro-2,2-dimethyl-spiro-[chroman-4,4'-imidazolidine]-2',5'-dione] | 78% | 95% | 89% | 100% | 11% | 60% | 47% | 86% | lenticular opacities on the 16th day (in words) ([2]; 5 mg/kg oral once a day): lenticular opacities were not observed; lenticular opacities on the 16th day (in words) ([2]; 25 mg/kg oral once a day): lenticular opacities were not observed; inhibition effect on cataract formation (in words) ([2]; galactosemic rats, FIG. 1 and Table 3): superior to the control compound; lenticular opacities, number with grade + ([2]; left, 1 mg/kg oral once a day): 1; lenticular opacities, number with grade - (no opacity) ([2]; left, 1 mg/kg oral once a day): 5; lenticular opacities, number with grade - (no opacity) ([2]; left, 5 mg/kg oral once a day): 6; lenticular opacities, number with grade - (no opacity) ([2]; left, 25 mg/kg oral once a day): 6; lenticular opacities, number with grade + ([2]; right, 1 mg/kg oral once a day): 1; lenticular opacities, number with grade - (no opacity) ([2]; right, 1 mg/kg oral once a day): 5; lenticular opacities, number with grade - (no opacity) ([2]; right, 5 mg/kg oral once a day): 6; lenticular opacities, number with grade - (no opacity) [2, 9]: 6; Inhibition of galactitol accumulation ([3]; lens, 1 mg/kg oral once a day): 2%; Inhibition of galactitol accumulation ([3]; lens, 5 mg/kg oral once a day): 19%; Inhibition of galactitol accumulation ([3]; lens, 25 mg/kg oral once a day): 46%; Inhibition of galactitol accumulation [3, 14]: 5%; Inhibition of galactitol accumulation [3, 15]: 50%; Inhibition of galactitol accumulation [3, 16]: 74%; inhibitory effect on galactitol accumulation in the sciatic nerve relative to the control compound ([3]; sciatic nerve, vs control compound): five times or more; inhibition of galactitol accumulation relative to the control compound ([3]; vs control compound): remarkably superior to the control compound |
| 92% | 31% | 84% | 0% | 400 nM | 77 nM | CC1CC2(NC(=O)NC2=O)c2cc(Cl)ccc2O1 (stereo not drawn) [6-Chloro-2-methyl-spiro-[chroman-4,4'-imidazolidine]-2',5'-dione] |  |  | 97% | 82% |  |  |  |  | higher activities such as the inhibition of sorbitol accumulation, predominant diastereomer compared with the other isomer [1]: 3-5 times; superior effect on the inhibition of sorbitol accumulation in comparison with the control compound [1]: 2-10 times |
| 91% | 31% | 77% | 7% | 500 nM | 180 nM | CC1CC2(NC(=O)NC2=O)c2cc(F)ccc2O1 (stereo not drawn) [6-Fluoro-2-methyl-spiro-[chroman-4,4'-imidazolidine]-2',5'-dione] | 93% | 100% | 96% | 100% | 43% | 80% | 39% | 100% | higher activities such as the inhibition of sorbitol accumulation, predominant diastereomer compared with the other isomer [1]: 3-5 times; superior effect on the inhibition of sorbitol accumulation in comparison with the control compound [1]: 2-10 times |
|  |  |  |  |  | 43 nM | CC1CC2(NC(=O)NC2=O)c2cc(Cl)ccc2O1 (stereo not drawn) [d-6-chloro-2-methyl-spiro-[chromane-4,4'-imidazolidine]-2',5'-dione] |  |  |  |  |  |  |  |  | activity of the d-type relative to the dl-type product (aldose reductase; d-type vs dl-type product): about twice |
|  |  |  |  |  | 93 nM | CC1CC2(NC(=O)NC2=O)c2cc(F)ccc2O1 (stereo not drawn) [d-6-fluoro-2-methyl-spiro-[chromane-4,4'-imidazolidine]-2',5'-dione] |  |  |  |  |  |  |  |  | activity of the d-type relative to the dl-type product (aldose reductase; d-type vs dl-type product): about twice |
